Experiment [1] deals with HCT116 WT cells. The experiment is described as follows: HCT116 WT (parent) cell line proliferation / cell viability (CellTiter-Glo, 6 days). Conditions: Homo sapiens, HCT-116, 144 h, 6 days treatment. Type of experiment: cell-based. The gist of the method:
(§1)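 Isogenic HCT116 pair (parental and MTAP-knockout) in RPMI 1640 + 10% FBS, treated 6 days with 8–9-point 1:3 dilutions from 1 or 10 μM top, or 22-point 1:2 dilutions from 10 or 50 μM top. Viability by CellTiter-Glo luminescence; IC50 from 4-parameter logistic fit or sigmoidal fit with Hill slope fixed at −1.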

Experiment [2] has as its system HCT116 MTAP null cells. Nature of the experiment: HCT116 MTAP null cell line proliferation / cell viability (CellTiter-Glo, 6 days). Type of experiment: cell-based. Conditions: 144 h; HCT116 MTAP null cells, 6 days treatment, CellTiter-Glo cell viability; read-out: HCT-116 MTAP null IC50. A digest of the protocol:
as §1
Background: ATP-based viability assays read luminescence as a measure of living cells.

The IC50 is the concentration at which inhibition is half-maximal.

With `C[C@@H]1OC[C@@H](N(C)C(=O)c2ccc3nc(N)c4c(cnn4C)c3c2)c2ccc(C(F)(F)F)cc21` (single isomer, unassigned) [Example 603], the IC50 is 16 µM in experiment [1] and 0.327 µM in experiment [2].
With `C[C@@H]1OC[C@H](N(C)C(=O)c2ccc3nc(N)c4c(cnn4C)c3c2)c2ccc(C(F)(F)F)cc21` (single isomer, unassigned) [Example 604], the IC50 in experiment [1] came out at 19.1 µM; in experiment [2] it was 2.31 µM.
As for `CN(C(=O)c1cc2c(cc1F)nc(N)c1c2cnn1C)[C@@H]1COCc2c1ccc(F)c2F` (single isomer, unassigned) [Example 605], the IC50 in experiment [1] is 26.4 µM; in experiment [2] it was 0.285 µM.
For `CN(C(=O)c1cc2c(cc1F)nc(N)c1c2cnn1C)[C@@H]1COCc2cc(C(F)(F)F)cnc21` (single isomer, unassigned) [Example 606], the IC50 worked out at 13.5 µM in experiment [1] and 0.724 µM in experiment [2].
As for `Cn1ncc2c3cc(C(=O)N(CC4CC4)[C@@H]4COCc5nc(C(F)(F)F)ccc54)c(F)cc3nc(N)c21` (single isomer, unassigned) [Example 607], the IC50 was 0.825 µM in experiment [1] and 0.021 µM in experiment [2].
The matching figures for `CN(C(=O)c1ccc2nc(N)c3c(c2c1)COC3)[C@@H]1COCc2cc(Br)ccc21` (single isomer, unassigned) [Example 608]: 1.04 µM and 0.026 µM.
The matching figures for `CN(C(=O)c1ccc2nc(N)c3c(c2c1)COC3)[C@H]1COCc2cc(Br)ccc21` (single isomer, unassigned) [Example 609]: 7.8 µM and 0.598 µM.
As for `CN(C(=O)c1ccc2nc(N)c3c(c2c1)COC3)[C@@H]1COc2cc(C3CC3)ccc21` (single isomer, unassigned) [Example 610], the IC50 in experiment [1] was determined as 5.51 µM; in experiment [2], 0.108 µM.
Take `CN(C(=O)c1ccc2nc(N)c3c(c2c1)COC3)[C@H]1COc2cc(C3CC3)ccc21` (single isomer, unassigned) [Example 611]: the results for the IC50 in experiment [1] and in experiment [2] were 10.5 µM and 1.69 µM, respectively.
Regarding `CN(C(=O)c1ccc2nc(N)c3c(c2c1)COC3)[C@@H]1COc2cc(C3=CCOCC3)ccc21` (single isomer, unassigned) [Example 612], the IC50 in experiment [1] amounted to 2.64 µM; in experiment [2] it was 0.033 µM.
As to `CN(C(=O)c1ccc2nc(N)c3c(c2c1)COC3)[C@H]1COc2cc(C3=CCOCC3)ccc21` (single isomer, unassigned) [Example 613], the values for the IC50 in experiment [1] and in experiment [2] were 2.63 µM and 0.86 µM, respectively.
Take `CN(C(=O)c1ccc2nc(N)c3cnn(C)c3c2c1)[C@@H]1CCc2cc(-c3cnn(C)c3)ccc21` (single isomer, unassigned) [Example 623]: the IC50 in experiment [1] is 3.49 µM; in experiment [2], 0.064 µM.
Consider `CN(C(=O)c1ccc2nc(N)c3cnn(C)c3c2c1)[C@H]1CCc2nc(-c3cnn(C)c3)ccc21` (single isomer, unassigned) [Example 624], for which the IC50 in experiment [1] amounted to 6.51 µM; in experiment [2], 0.075 µM.
Take `CN(C(=O)c1ccc2nc(N)c3cnn(C)c3c2c1)[C@@H]1COCc2cc(-c3cnn(C(F)(F)F)c3)ccc21` (single isomer, unassigned) [Example 663]: the IC50 in experiment [1] is 0.922 µM; in experiment [2] it was 0.01 µM.
In the case of `CN(C(=O)c1ccc2nc(N)c3cnn(C)c3c2c1)[C@H]1COCc2cc(-c3cnn(C(F)(F)F)c3)ccc21` (single isomer, unassigned) [Example 664], the results for the IC50 in experiment [1] and in experiment [2] were 1.77 µM and 0.319 µM, respectively.
As to `CN(C(=O)c1cc2c3c(c(N)nc2cc1F)COC3)[C@H]1COCc2cc(-c3ccc(C(F)(F)F)cc3)ccc21` (single isomer, unassigned) [Example 665], the IC50 was 2.51 µM in experiment [1] and 0.875 µM in experiment [2].
With `CN(C(=O)c1cc2c3c(c(N)nc2cc1F)COC3)[C@@H]1COCc2cc(-c3ccc(C(F)(F)F)cc3)ccc21` (single isomer, unassigned) [Example 666], the half-inhibitory concentration (IC50) in experiment [1] stood at 1.1 µM; in experiment [2], 0.022 µM.
As for `CN(C(=O)c1ccc2nc(N)c3cnn(C)c3c2c1)[C@@H]1COCc2cc(-c3ccc(C(F)(F)F)cc3)ccc21` (single isomer, unassigned) [Example 669], the IC50 in experiment [1] is 1 µM; in experiment [2], 0.016 µM.
For `CN(C(=O)c1ccc2nc(N)c3cnn(C)c3c2c1)[C@H]1COCc2cc(-c3ccc(C(F)(F)F)cc3)ccc21` (single isomer, unassigned) [Example 670], the IC50 in experiment [1] turned out to be 1.12 µM; in experiment [2], 0.536 µM.
Consider `Cc1ccc2c(c1)CC[C@H]2N(C)C(=O)c1ccc2nc(N)c3cnn(C)c3c2c1` (single isomer, unassigned) [Example 680], for which the IC50 in experiment [1] was found to be 7.96 µM; in experiment [2], 0.168 µM.
As for `CCN(C(=O)c1cc2c(cn1)nc(N)c1cnn(C)c12)C1COc2cc(C(F)(F)F)ccc21` (stereo in doubt) [Example 238, 4-amino-N-ethyl-1-methyl-N-((3S)-6-(trifluoromethyl)-2,3-dihydro-1-benzofuran-3-yl)-1H-pyrazolo[4,3-c][1,7]naph-thyridine-8-carboxamide], the IC50 in experiment [1] came to 13 µM; in experiment [2], 0.215 µM.
As to `Cn1ncc2c(N)nc3cc(F)c(C(=O)N(C4CC4)[C@@H]4COc5cc(C(F)(F)F)ccc54)cc3c21` [Example 200, (S)-4-amino-N-cyclopropyl-7-fluoro-1-methyl-N-(6-(trifluoromethyl)-2,3-dihydrobenzofuran-3-yl)-1H-pyrazolo[4,3-c]quinoline-8-carboxamide], the IC50 was found to be 0.112 µM in experiment [1] and 0.008 µM in experiment [2].
On to `CN(C(=O)c1ccc2nc(N)c3c(c2c1)COC3)[C@@H]1COc2cc(-c3cnn(C)c3)ccc21` [Example 202, 4-amino-N-methyl-N-((3S)-6-(1-methyl-1H-pyrazol-4-yl)-2,3-dihydro-1-benzofuran-3-yl)-1,3-dihydrofuro[3,4-c]-quinoline-8-carboxamide], for which the IC50 is 11.4 µM in experiment [1] and 0.083 µM in experiment [2].
Turning to `C[C@H]1OCc2c1c(N)nc1ccc(C(=O)N(C)[C@@H]3COc4cc(-c5cnn(C)c5)ccc43)cc21` [Example 204, (3R)-4-amino-N,3-dimethyl-N-((3S)-6-(1-methyl-1H-pyrazol-4-yl)-2,3-dihydro-1-benzofuran-3-yl)-1,3-dihydrofuro[3,4-c]-quinoline-8-carboxamide], the figures for the concentration for half-maximal inhibition (IC50) in experiment [1] and in experiment [2] were 4.39 µM and 0.031 µM, respectively.
In the case of `CN(C(=O)c1cc2c3c(c(N)nc2cn1)COC3)[C@@H]1COc2cc(OC(F)(F)F)ccc21` [Example 206, 4-amino-N-methyl-N-((3S)-6-(trifluoromethoxy)-2,3-dihydro-1-benzofuran-3-yl)-1,3-dihydrofuro[3,4-c][1,7]-naphthyridine-8-carboxamide], the IC50 in experiment [1] was 9.79 µM; in experiment [2], 0.1 µM.
Consider `CN(C(=O)c1cc2c3c(c(N)nc2cn1)COC3)[C@H]1COc2cc(OC(F)(F)F)ccc21` [Example 207, 4-amino-N-methyl-N-((3R)-6-(trifluoromethoxy)-2,3-dihydro-1-benzofuran-3-yl)-1,3-dihydrofuro[3,4-c][1,7]-naphthyridine-8-carboxamide], for which the IC50 in experiment [1] turned out to be 23.2 µM; in experiment [2] it was 6.06 µM.
Turning to `CN(C(=O)c1cc2c3c(c(N)nc2cn1)COC3)[C@@H]1COc2cc(Cl)c(Cl)cc21` [Example 209, 4-amino-N-((3S)-5,6-dichloro-2,3-dihydro-1-benzofuran-3-yl)-N-methyl-1,3-dihydrofuro[3,4-c][1,7]naphthyridine-8-carbox-amide], the results for the IC50 in experiment [1] and in experiment [2] were 3 µM and 0.061 µM, respectively.
The matching figures for `CN(C(=O)c1cc2c3c(c(N)nc2cn1)COC3)[C@H]1COc2cc(Cl)c(Cl)cc21` [Example 210, 4-amino-N-((3R)-5,6-dichloro-2,3-dihydro-1-benzofuran-3-yl)-N-methyl-1,3-dihydrofuro[3,4-c][1,7]naphthyridine-8-carbox-amide]: 25.3 µM and 2.37 µM.
Consider `C[C@H]1OCc2c1c(N)nc1cnc(C(=O)N(C)[C@@H]3COc4cc(C(F)(F)F)ccc43)cc21` [Example 211, (3R)-4-amino-N,3-dimethyl-N-((3S)-6-(trifluoromethyl)-2,3-dihydro-1-benzofuran-3-yl)-1,3-dihydrofuro[3,4-c][1,7]-naphthyridine-8-carboxamide], for which the IC50 in experiment [1] is 1.46 µM; in experiment [2] it was 0.028 µM.
As for `CN(C(=O)c1cc2c3c(c(N)nc2cc1F)COC3)C1COc2ncc(C(F)(F)F)cc21` [Example 212, 4-amino-7-fluoro-N-methyl-N-((3R)-5-(trifluoromethyl)-2,3-dihydrofuro[2,3-b]pyridin-3-yl)-1,3-dihydrofuro[3,4-c]-quinoline-8-carboxamide and 4-amino-7-fluoro-N-methyl-N-((3S)-5-(trifluoromethyl)-2,3-dihydrofuro[2,3-b]pyridin-3-yl)-1,3-dihydrofuro[3,4-c]quin-oline-8-carboxamide], the IC50 in experiment [1] was determined as 10.7 µM; in experiment [2] it was 0.495 µM.
Regarding `CN(C(=O)c1cc2c3c(c(N)nc2cc1F)COC3)[C@@H]1COc2cc(-c3cnn(C)c3)ccc21` [Example 214, 4-amino-7-fluoro-N-methyl-N-((3S)-6-(1-methyl-1H-pyrazol-4-yl)-2,3-dihydro-1-benzofuran-3-yl)-1,3-dihydrofuro[3,4-c]-quinoline-8-carboxamide], the IC50 in experiment [1] came to 2.06 µM; in experiment [2] it was 0.029 µM.
The matching figures for `C[C@H]1OCc2c1c(N)nc1cc(F)c(C(=O)N(C)[C@@H]3COc4cc(-c5cnn(C)c5)ccc43)cc21` [Example 217, (3R)-4-amino-7-fluoro-N,3-dimethyl-N-((3S)-6-(1-methyl-1H-pyrazol-4-yl)-2,3-dihydro-1-benzofuran-3-yl)-1,3-dihydrofuro[3,4-c]quinoline-8-carboxamide]: 1.02 µM and 0.01 µM.

The values above are taken from US20240124442A1, “TRICYCLIC-AMIDO-BICYCLIC PRMT5 INHIBITORS” (AMGEN INC., priority 2021, published 2024).
